What was measured:
human Nav1.7 = human Nav1.7 (Homo sapiens (Human), UniProt Q15858); experiment: Human Nav1.7 inhibitory activity evaluation (automated patch clamp QPatch16X, HEK293A cells stably expressing human Nav1.7 and human Navβ1); format: cell-based
Outline: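 QPatch16X whole-cell recordings at room temperature from HEK293A cells stably expressing human Nav1.7 with Navβ1, CsF-based internal solution, pH 7.4 external, 0.1% DMSO. From −100 mV holding, protocol included a 15 s hold at a potential inactivating ~30-40% of channels; IC50 from inward current at the second −10 mV pulse.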

human Nav1.5 = human Nav1.5 (Homo sapiens (Human), UniProt Q14524); experiment: Human Nav1.5 inhibitory activity evaluation (automated patch clamp QPatch16X, HEK293 cells stably expressing human Nav1.5); format: cell-based
human Nav1.5, sequence (Q14524 whole entry): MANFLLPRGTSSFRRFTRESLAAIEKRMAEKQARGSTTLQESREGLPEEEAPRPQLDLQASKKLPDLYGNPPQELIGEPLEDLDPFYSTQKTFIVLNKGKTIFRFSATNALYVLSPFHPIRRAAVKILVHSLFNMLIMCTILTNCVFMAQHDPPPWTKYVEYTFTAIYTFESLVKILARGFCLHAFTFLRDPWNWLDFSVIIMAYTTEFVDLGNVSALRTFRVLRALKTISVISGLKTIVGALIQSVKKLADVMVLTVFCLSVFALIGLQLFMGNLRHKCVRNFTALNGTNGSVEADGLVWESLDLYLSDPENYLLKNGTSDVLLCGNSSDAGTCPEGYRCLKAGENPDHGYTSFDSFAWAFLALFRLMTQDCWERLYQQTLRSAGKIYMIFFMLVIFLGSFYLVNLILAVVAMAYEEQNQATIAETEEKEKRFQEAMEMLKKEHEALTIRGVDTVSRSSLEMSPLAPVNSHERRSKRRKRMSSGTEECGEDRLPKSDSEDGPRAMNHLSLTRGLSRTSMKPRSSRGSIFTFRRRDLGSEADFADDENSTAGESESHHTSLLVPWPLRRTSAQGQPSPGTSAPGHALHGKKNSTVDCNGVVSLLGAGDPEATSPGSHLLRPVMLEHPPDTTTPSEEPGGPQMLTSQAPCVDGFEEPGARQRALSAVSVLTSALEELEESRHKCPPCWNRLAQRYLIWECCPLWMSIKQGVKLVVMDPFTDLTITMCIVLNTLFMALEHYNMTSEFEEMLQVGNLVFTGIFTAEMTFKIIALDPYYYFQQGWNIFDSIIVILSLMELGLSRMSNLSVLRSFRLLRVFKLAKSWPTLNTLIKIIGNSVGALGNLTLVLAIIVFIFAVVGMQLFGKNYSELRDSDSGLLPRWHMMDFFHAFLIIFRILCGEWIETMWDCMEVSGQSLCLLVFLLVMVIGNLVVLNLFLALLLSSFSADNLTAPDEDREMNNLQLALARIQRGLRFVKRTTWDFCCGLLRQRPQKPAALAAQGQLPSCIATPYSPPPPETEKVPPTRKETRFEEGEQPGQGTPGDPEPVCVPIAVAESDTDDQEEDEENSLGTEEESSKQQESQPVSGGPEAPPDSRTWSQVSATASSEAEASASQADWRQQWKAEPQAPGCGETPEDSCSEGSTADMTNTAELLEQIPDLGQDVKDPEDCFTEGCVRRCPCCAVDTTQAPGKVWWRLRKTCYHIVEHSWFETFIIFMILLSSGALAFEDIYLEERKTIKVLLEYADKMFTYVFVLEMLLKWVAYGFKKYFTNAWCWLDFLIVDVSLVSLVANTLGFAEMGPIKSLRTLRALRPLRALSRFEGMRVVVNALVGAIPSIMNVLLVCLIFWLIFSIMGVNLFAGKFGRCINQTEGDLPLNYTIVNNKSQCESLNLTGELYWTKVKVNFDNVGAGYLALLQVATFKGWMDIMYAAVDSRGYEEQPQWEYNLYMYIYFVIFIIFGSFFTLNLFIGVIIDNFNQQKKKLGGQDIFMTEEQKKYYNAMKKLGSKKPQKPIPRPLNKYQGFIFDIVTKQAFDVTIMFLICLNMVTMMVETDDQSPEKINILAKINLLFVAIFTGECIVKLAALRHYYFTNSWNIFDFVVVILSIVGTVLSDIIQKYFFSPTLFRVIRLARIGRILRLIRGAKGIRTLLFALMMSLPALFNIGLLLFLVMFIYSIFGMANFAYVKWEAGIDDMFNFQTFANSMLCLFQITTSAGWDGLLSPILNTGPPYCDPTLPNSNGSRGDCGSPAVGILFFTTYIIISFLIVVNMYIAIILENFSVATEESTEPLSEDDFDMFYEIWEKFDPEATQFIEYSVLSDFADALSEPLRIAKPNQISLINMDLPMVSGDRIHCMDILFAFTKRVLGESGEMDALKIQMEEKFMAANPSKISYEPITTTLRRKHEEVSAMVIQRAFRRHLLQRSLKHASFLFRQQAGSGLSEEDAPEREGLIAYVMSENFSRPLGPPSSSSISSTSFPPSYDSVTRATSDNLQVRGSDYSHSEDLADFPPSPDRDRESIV
Method: Test Example 2: Human Nav1.5 Inhibitory Activity Evaluation
A cell line in which human Nav1.5 was stably expressed in HEK293 cells was used. DMEM supplemeted with 15% fetal bovine serum, 500 μg/ml geneticin, 100 units/ml penicillin, 100 μg/ml streptomycin, 20 mM HEPES was used as culture medium under the conditions of 37° C. and 5% CO2 in T175 flasks to carry out culturing. When 60-80% confluence was reached, a cell suspension of about 0.5-5.0×10^6 cells/mL was prepared. The amount of current through human Nav1.5 was recorded using a fully automatic patch clamp device QPatch16X at room temperature. As the extracellular solution, 145 mM NaCl, 4 mM KCl, 1 mM MgCl2, 2 mM CaCl2, 10 mM Glucose, and 10 mM HEPES at pH 7.4 was used. As the intracellular solution, 135 mM CsF, ⅕ mM EGTA/CsOH, 10 mM HEPES, and 10 mM NaCl at pH 7.3 was used. The test compounds were dissolved in DMSO and diluted with the extracellular solution to attend the DMSO concentration of 0.1% at the time of assay.
The current response was obtained at a sampling frequency of 25 kHz, and noise was removed with a 3 kHz low-pass filter. The holding potential was −80 mV. Correction of the leakage current was carried out by applying a step pulse of −100 mV before the test pulse. In order to investigate human Nav1.5 inhibitory effect of the test compound, test pulses imitating the action potential of cardiomyocytes were continuously given 20 times. The test pulses were given before and after the test compound addition.
The inhibitory activity of the test compound was determined based on the amount of inward current generated by the 20th depolarization pulse, and the 50% inhibitory concentration (IC50) was calculated from the concentration-response curve.

[1] = HEK293A cells stably expressing human Nav1.7 and human Navβ1, automated patch clamp QPatch16X
[2] = HEK293 cells stably expressing human Nav1.5, automated patch clamp QPatch16X
[3] = human Nav1.7, automated patch clamp
[4] = human Nav1.5, automated patch clamp

human Nav1.7, sequence (Q15858 whole entry): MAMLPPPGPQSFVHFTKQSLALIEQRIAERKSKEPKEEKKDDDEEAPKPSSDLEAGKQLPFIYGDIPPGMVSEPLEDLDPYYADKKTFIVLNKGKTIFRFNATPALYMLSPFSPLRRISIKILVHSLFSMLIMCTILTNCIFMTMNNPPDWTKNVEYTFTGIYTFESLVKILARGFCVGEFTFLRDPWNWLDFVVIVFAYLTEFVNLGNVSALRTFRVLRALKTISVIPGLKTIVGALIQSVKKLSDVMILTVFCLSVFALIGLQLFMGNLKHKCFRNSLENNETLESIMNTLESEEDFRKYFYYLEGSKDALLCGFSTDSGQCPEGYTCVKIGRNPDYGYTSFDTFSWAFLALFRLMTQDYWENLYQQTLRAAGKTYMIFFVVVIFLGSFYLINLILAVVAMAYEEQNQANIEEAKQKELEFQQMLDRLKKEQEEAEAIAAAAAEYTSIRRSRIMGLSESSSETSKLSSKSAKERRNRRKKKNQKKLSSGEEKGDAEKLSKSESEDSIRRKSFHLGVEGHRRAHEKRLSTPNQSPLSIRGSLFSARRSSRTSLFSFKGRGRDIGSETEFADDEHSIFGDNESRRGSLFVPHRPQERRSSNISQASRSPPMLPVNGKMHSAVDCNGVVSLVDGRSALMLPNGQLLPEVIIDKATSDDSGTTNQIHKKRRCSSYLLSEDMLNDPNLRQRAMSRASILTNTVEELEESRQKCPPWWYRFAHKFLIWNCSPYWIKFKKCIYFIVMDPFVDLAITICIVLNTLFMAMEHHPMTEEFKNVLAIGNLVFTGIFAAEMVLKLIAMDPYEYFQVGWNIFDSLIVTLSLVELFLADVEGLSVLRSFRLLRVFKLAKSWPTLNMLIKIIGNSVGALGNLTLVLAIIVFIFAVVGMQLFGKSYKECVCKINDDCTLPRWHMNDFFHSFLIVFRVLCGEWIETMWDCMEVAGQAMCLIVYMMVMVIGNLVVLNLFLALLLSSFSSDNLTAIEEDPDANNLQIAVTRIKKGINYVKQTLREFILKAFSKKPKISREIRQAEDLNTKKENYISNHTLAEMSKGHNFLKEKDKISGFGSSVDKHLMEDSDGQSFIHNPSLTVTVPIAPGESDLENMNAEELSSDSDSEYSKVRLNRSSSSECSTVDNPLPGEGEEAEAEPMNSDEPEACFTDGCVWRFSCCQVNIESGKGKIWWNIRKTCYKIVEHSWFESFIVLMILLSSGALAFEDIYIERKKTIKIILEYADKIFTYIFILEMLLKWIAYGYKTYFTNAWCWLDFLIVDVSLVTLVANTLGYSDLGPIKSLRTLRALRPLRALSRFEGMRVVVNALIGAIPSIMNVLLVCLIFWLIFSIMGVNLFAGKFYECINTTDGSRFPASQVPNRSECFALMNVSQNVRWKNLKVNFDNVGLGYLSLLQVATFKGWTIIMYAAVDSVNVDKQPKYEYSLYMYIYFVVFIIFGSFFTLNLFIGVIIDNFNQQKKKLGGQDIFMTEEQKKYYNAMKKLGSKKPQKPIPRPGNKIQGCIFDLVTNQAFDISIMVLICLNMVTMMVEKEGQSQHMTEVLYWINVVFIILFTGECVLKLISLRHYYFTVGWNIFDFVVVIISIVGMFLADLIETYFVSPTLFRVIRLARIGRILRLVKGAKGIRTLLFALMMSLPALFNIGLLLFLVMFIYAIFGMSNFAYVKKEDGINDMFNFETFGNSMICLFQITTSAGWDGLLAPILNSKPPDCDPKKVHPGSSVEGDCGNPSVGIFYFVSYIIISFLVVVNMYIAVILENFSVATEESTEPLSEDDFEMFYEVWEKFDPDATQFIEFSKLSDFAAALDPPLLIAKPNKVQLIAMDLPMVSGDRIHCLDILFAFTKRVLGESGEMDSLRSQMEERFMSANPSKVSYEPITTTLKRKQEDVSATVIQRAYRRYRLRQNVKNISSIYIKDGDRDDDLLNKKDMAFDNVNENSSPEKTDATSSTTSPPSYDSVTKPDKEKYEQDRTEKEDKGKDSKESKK
human Nav1.7, sequence (Q07699 19-218 partner): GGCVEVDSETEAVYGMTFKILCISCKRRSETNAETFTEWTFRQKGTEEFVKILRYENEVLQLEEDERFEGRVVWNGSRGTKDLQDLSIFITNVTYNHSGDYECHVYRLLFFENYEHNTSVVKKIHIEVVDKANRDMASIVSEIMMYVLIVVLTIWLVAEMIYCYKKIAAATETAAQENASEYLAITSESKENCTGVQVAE

Compound	IC50 (human Nav1.7; [1]) [nM]	IC50 (human Nav1.7; [3]) [nM]	IC50 (human Nav1.5; [2]) [nM]	IC50 (human Nav1.5; [4]) [nM]
O=C(N[C@H]1COc2ccc(Cl)cc2C1)c1cn2c(n1)CCC(C(F)(F)F)C2 (single isomer, unassigned) [Example 2 (isomer B)]	< 1000	–	≥ 3000	–
O=C(N[C@H]1COc2ccc(CCOC(F)F)cc2C1)c1cc2n(n1)CC(COCC(F)(F)F)O2 (single isomer, unassigned) [190 (isomer A)]	–	< 1000	–	≥ 3000
O=C(N[C@H]1COc2ccc(Cl)cc2C1)c1cc2n(n1)CC(CCNCC(F)(F)F)O2 (single isomer, unassigned) [226 (isomer B)]	–	< 1000	–	1000 to 3000
O=C(N[C@H]1COc2ccc(CCOC(F)F)cc2C1)c1cc2n(n1)CCC(COC(F)F)O2 (single isomer, unassigned) [142 (isomer B)]	–	< 1000	–	≥ 3000
O=C(N[C@H]1COc2ccc(CCOC(F)F)cc2C1)c1cc2n(n1)CC(CCOC(F)F)O2 (single isomer, unassigned) [217 (isomer B)]	–	< 1000	–	< 1000
O=C(N[C@H]1COc2ccc(-c3ccccn3)cc2C1)c1cc2n(n1)CCC(COCC1CC1)O2 (stereo partly shown) [Example 110]	< 1000	–	≥ 3000	–
O=C(N[C@H]1COc2ccc(CC(F)F)cc2C1)c1cc2n(n1)CCC(C(F)(F)F)O2 (single isomer, unassigned) [173 (isomer A)]	–	< 1000	–	≥ 3000
O=C(N[C@H]1COc2ccc(Br)cc2C1)c1cc2n(n1)CCC(C(F)F)O2 (stereo partly drawn) [Example 159, N—((R)-6-bromochroman-3-yl)-5-(difluoromethyl)-6,7-dihydro-5H-pyrazolo[5,1-b][1,3]oxazine-2-carboxamide]	–	< 1000	–	≥ 3000
CCOCC1CCn2nc(C(=O)N[C@H]3COc4ccc(-c5ccccn5)cc4C3)cc2O1 (stereo partly shown) [Example 123]	< 10000	–	≥ 3000	–
N#Cc1ccc2c(c1)C[C@@H](NC(=O)c1cc3n(n1)CCC(CC1CC1)O3)CO2 (stereo partly shown) [Example 96]	< 1000	–	1000 to 3000	–
N#Cc1ccc2c(c1)C(F)[C@@H](NC(=O)c1cc3n(n1)CCC(COCC1CC1)O3)CO2 (single isomer, unassigned) [617 (isomer C)]	–	< 10000	–	≥ 3000
O=C(N[C@H]1COc2ccccc2C1)c1cn2c(n1)CNC(CCCc1ccccc1)C2 (stereo partly shown) [Example 55]	< 1000	–	1000 to 3000	–
O=C(N[C@H]1COc2ccc(C(F)(F)F)cc2C1)c1nc2n(c1-c1ccn[nH]1)CCCC2 [Example 19]	< 1000	–	< 1000	–
O=C(N[C@H]1COc2ccc(-c3ccccn3)cc2C1)c1cc2n(n1)CCC(c1ccccc1F)O2 (stereo partly shown) [Example 81]	< 1000	–	≥ 3000	–
COc1ncccc1C1CCn2nc(C(=O)N[C@H]3COc4ccc(C#N)cc4C3)cc2O1 (stereo partly shown) [Example 75]	< 1000	–	≥ 3000	–
COc1ncc(-c2ccc3c(c2)C[C@@H](NC(=O)c2cc4n(n2)CC(CCOCC2CC2)O4)CO3)cn1 (single isomer, unassigned) [204 (isomer B)]	–	< 1000	–	1000 to 3000
O=C(N[C@H]1COc2ccc(CCOC(F)F)cc2C1)c1cc2n(n1)CCC(COC(F)F)O2 (single isomer, unassigned) [142 (isomer A)]	–	< 1000	–	1000 to 3000
O=C(N[C@H]1COc2ccc(COCC(F)(F)F)cc2C1)c1cc2n(n1)CC(CCNCC(F)(F)F)O2 (single isomer, unassigned) [232 (isomer B)]	–	< 1000	–	≥ 3000
O=C(N[C@H]1COc2ccc(C(F)(F)F)cc2C1O)c1cc2n(n1)CC(CCOCC(F)(F)F)O2 (single isomer, unassigned) [600 (isomer B)]	–	< 1000	–	1000 to 3000
O=C(N[C@H]1COc2ccc(Cl)cc2C1)c1cc2n(n1)CCC(C(F)(F)F)O2 (single isomer, unassigned) [170 (isomer A)]	–	< 1000	–	1000 to 3000
N#Cc1ccc2c(c1)C[C@@H](NC(=O)c1cc3n(n1)CCC(COc1ccccc1)O3)CO2 (stereo partly shown) [Example 118]	< 1000	–	< 1000	–
N#Cc1ccc2c(c1)C[C@@H](NC(=O)c1cc3n(n1)CC(CCCOC(F)F)O3)CO2 (single isomer, unassigned) [248 (isomer A)]	–	< 1000	–	1000 to 3000
CN1Cc2nc(C(=O)NC3COc4ccccc4C3)cn2CC1c1ccccc1 (stereo not shown) [Example 57]	< 1000	–	< 1000	–
CCC1CCc2nc(C(=O)N[C@H]3COc4ccccc4C3)cn2C1 (stereo partly shown) [Example 23]	< 10000	–	≥ 3000	–
COc1cccc(-c2c(C(=O)N[C@H]3COc4ccc(Cl)cc4C3)nc3n2CCCC3)n1 [Example 17, (R)—N-(6-chlorochroman-3-yl)-3-(6-methoxypyridin-2-yl)-5,6,7,8-tetrahydroimidazo[1,2-a]pyridine-2-carboxamide]	< 1000	–	1000 to 3000	–
O=C(N[C@H]1COc2ccc(COCC(F)(F)F)cc2C1)c1cc2n(n1)CCC(C1CCOCC1)O2 (single isomer, unassigned) [615 (isomer A)]	–	< 1000	–	1000 to 3000
Cn1cc(-c2ccc3c(c2)C[C@@H](NC(=O)c2cc4n(n2)CC(CCOC(F)F)O4)CO3)cn1 (single isomer, unassigned) [221 (isomer A)]	–	< 10000	–	≥ 3000
O=C(N[C@H]1COc2ccc(COCC(F)(F)F)cc2C1)c1cc2n(n1)CC(CCOCC(F)F)O2 (single isomer, unassigned) [224 (isomer B)]	–	< 1000	–	1000 to 3000
Cn1ccc(-c2ccc3c(c2)C[C@@H](NC(=O)c2cc4n(n2)CC(CCOC(F)(F)F)O4)CO3)n1 (single isomer, unassigned) [213 (isomer A)]	–	< 1000	–	≥ 3000

Second part, led by results:

IC50 (human Nav1.7; [1]) [nM]	IC50 (human Nav1.7; [3]) [nM]	Compound	IC50 (human Nav1.5; [2]) [nM]	IC50 (human Nav1.5; [4]) [nM]
–	< 1000	Cn1ccc(-c2ccc3c(c2)C[C@@H](NC(=O)c2cc4n(n2)CC(CCOCC2CC2)O4)CO3)n1 (stereo partly shown) [Example 461]	–	1000 to 3000
–	< 1000	O=C(N[C@H]1COc2ccc(Cl)cc2C1)c1cc2n(n1)CCN(CCC(F)(F)F)C2 [Example 261]	–	< 1000
–	< 10000	O=C(c1cn2c(n1)CCC(C1CCC(F)(F)CC1)C2)N1CCC1Cc1ccccc1 (stereo not shown) [Example 318]	–	≥ 3000
–	< 1000	COc1ncc(-c2ccc3c(c2)C[C@@H](NC(=O)c2cc4n(n2)CC(COCC2CC2)O4)CO3)cn1 (stereo partly shown) [Example 468]	–	≥ 3000
–	< 10000	O=C(N[C@H]1COc2ccc(Cl)cc2C1)c1cc2n(n1)CCC(c1cccnc1)O2 (stereo partly shown) [Example 358]	–	≥ 3000
–	< 1000	O=C(N[C@H]1COc2ccc(CC(F)F)cc2C1)c1cc2n(n1)CC(CCOCC(F)(F)F)O2 (stereo partly shown) [Example 466]	–	1000 to 3000
–	< 1000	O=C(N[C@H]1COc2ccc(COCC3CC3)cc2C1)c1cc2n(n1)CCC(C(F)(F)F)O2 (stereo partly shown) [Example 391]	–	≥ 3000
–	< 10000	O=C(N[C@H]1COc2ccccc2C1)c1cc2n(n1)CCN(S(=O)(=O)c1cccc(C(F)(F)F)c1)C2 [Example 277]	–	≥ 3000
–	< 10000	O=C(N[C@H]1COc2ccc(C(F)(F)F)cc2C1)c1nn2c(c1-c1ccccn1)CN(CC(F)(F)F)CC2 [Example 267]	–	< 1000
–	< 1000	COc1cccc(-c2c(C(=O)N[C@H]3COc4ccccc4C3)nc3n2CCCC3)n1 [Example 303]	–	1000 to 3000
–	< 1000	O=C(N[C@H]1COc2ccc(Cl)cc2C1)c1cc2n(n1)CCN(CC(F)(F)C1CC1)C2 [Example 495]	–	≥ 3000
–	< 1000	O=C(N[C@H]1COc2ccc(-c3cncs3)cc2C1)c1cc2n(n1)CCC(COCC1CC1)O2 (stereo partly shown) [Example 428]	–	≥ 3000
–	< 1000	O=C(N[C@H]1COc2ccc(CC(F)F)cc2C1)c1cc2n(n1)CC(COC(F)(F)F)O2 (stereo partly shown) [Example 197]	–	≥ 3000
–	< 1000	O=C(c1cn2c(n1)CCC(C(F)(F)F)C2)N(Cc1ccccc1)C1COc2ccc(Br)cc2C1 (stereo not shown) [Example 298]	–	1000 to 3000
–	< 1000	O=C(N[C@H]1COc2ccc(CC(F)(F)F)cc2C1)c1nc2n(c1-c1ccccn1)CCOC2 [Example 343]	–	1000 to 3000
–	< 1000	O=C(N[C@H]1COc2ccccc2C1)c1cc2n(n1)CCN(CC(F)(F)C(F)(F)F)C2 [Example 487]	–	1000 to 3000
–	< 10000	CN1Cc2nc(C(=O)NC3COc4cccc(C(F)(F)F)c4C3)cn2CC1c1ccccc1 (stereo not shown) [Example 334]	–	1000 to 3000
–	< 1000	O=C(N[C@H]1COc2ccc(-c3cscn3)cc2C1)c1cc2n(n1)CCC(COCC1CC1)O2 (stereo partly shown) [Example 427]	–	1000 to 3000

From patent publication US12421225B2, “Heteroaromatic amide derivative and medicament containing the same” (KAKEN PHARMACEUTICAL CO., LTD., priority 2018, dated 2025)
